# Source: ChEMBL document CHEMBL1201862, “PubChem BioAssay data set” (2004)
#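 1) Cells in 96-well plates. 2) Compound, 48 h, 5 concentrations. 3) Linear interpolation between surrounding doses. 4) Unreached endpoint = highest concentration. At the GI50, growth is halved.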 Calls of active or inactive are those of the source. No stated cut-off is given here; in the data, active = GI50 up to about 1.1 µM and inactive = higher.
# Tests used:
# Experiment in all cases: DTP human tumour cell line panel, 48 h
# SNB-75 = tested on: SNB-75
# MDA-N = tested on: MDA-N
# HOP-92 = tested on: HOP-92
# SN12C = tested on: SN12C
# OVCAR-8 = tested on: OVCAR-8
# PC-3 = tested on: PC-3
# HT-29 = tested on: HT-29
# NCI-H522 = tested on: NCI-H522
# NCI-H226 = tested on: NCI-H226
# SF-295 = tested on: SF-295
# Malme-3M = tested on: Malme-3M
# HOP-62 = tested on: HOP-62
# UACC-62 = tested on: UACC-62
# HCC 2998 = tested on: HCC 2998
# BT-549 = tested on: BT-549
# CAKI-1 = tested on: CAKI-1
# TK-10 = tested on: TK-10
# RPMI-8226 = tested on: RPMI-8226
# COLO 205 = tested on: COLO 205
# CCRF-CEM = tested on: CCRF-CEM
# K562 = tested on: K562
# HL-60 = tested on: HL-60
# NCI/ADR-RES = tested on: NCI/ADR-RES
# SK-OV-3 = tested on: SK-OV-3
# SR = tested on: SR
# MCF7 = tested on: MCF7
# OVCAR-4 = tested on: OVCAR-4
# MDA-MB-435 = tested on: MDA-MB-435
# U-251 = tested on: U-251
# UO-31 = tested on: UO-31
# 786-0 = tested on: 786-0
# NCI-H460 = tested on: NCI-H460
# MOLT-4 = tested on: MOLT-4
# EKVX = tested on: EKVX
# OVCAR-5 = tested on: OVCAR-5
# SK-MEL-5 = tested on: SK-MEL-5
# MDA-MB-231 = tested on: MDA-MB-231
# M14 = tested on: M14
# Hs-578T = tested on: Hs-578T
# A498 = tested on: A498
# NCI-H23 = tested on: NCI-H23
# LOX IMVI = tested on: LOX IMVI
# SF-539 = tested on: SF-539
# SNB-19 = tested on: SNB-19
# SF-268 = tested on: SF-268
# HCT-15 = tested on: HCT-15
# OVCAR-3 = tested on: OVCAR-3
# SW-620 = tested on: SW-620
# IGROV-1 = tested on: IGROV-1
# T47D = tested on: T47D
# RXF 393 = tested on: RXF 393
# SK-MEL-2 = tested on: SK-MEL-2
# SK-MEL-28 = tested on: SK-MEL-28
# UACC-257 = tested on: UACC-257
# DU-145 = tested on: DU-145
# HCT-116 = tested on: HCT-116
# A549 = tested on: A549
# KM12 = tested on: KM12
# ACHN = tested on: ACHN
smiles,measurement,setting,value
c1ccc2c(c1)nc1n2C2CCC(C2)N1 (configuration not stated),GI50,SNB-75,1.87 µM (inactive)
same,GI50,MDA-N,> 10 µM (inactive)
same,GI50,HOP-92,> 10 µM (inactive)
same,GI50,SN12C,> 10 µM (inactive)
same,GI50,OVCAR-8,> 10 µM (inactive)
same,GI50,PC-3,> 10 µM (inactive)
same,GI50,HT-29,> 10 µM (inactive)
same,GI50,NCI-H522,> 10 µM (inactive)
same,GI50,NCI-H226,> 10 µM (inactive)
same,GI50,SF-295,> 10 µM (inactive)
same,GI50,Malme-3M,> 10 µM (inactive)
same,GI50,HOP-62,> 10 µM (inactive)
same,GI50,UACC-62,> 10 µM (inactive)
same,GI50,HCC 2998,> 10 µM (inactive)
same,GI50,BT-549,> 10 µM (inactive)
same,GI50,CAKI-1,> 10 µM (inactive)
same,GI50,TK-10,> 10 µM (inactive)
same,GI50,RPMI-8226,> 10 µM (inactive)
same,GI50,COLO 205,> 10 µM (inactive)
same,GI50,CCRF-CEM,> 10 µM (inactive)
same,GI50,K562,> 10 µM (inactive)
same,GI50,HL-60,> 10 µM (inactive)
same,GI50,NCI/ADR-RES,> 10 µM (inactive)
same,GI50,SK-OV-3,> 10 µM (inactive)
same,GI50,SR,> 10 µM (inactive)
same,GI50,MCF7,> 10 µM (inactive)
same,GI50,OVCAR-4,> 10 µM (inactive)
same,GI50,MDA-MB-435,> 10 µM (inactive)
same,GI50,U-251,> 10 µM (inactive)
same,GI50,UO-31,> 10 µM (inactive)
same,GI50,786-0,> 10 µM (inactive)
same,GI50,NCI-H460,> 10 µM (inactive)
same,GI50,MOLT-4,> 10 µM (inactive)
same,GI50,EKVX,> 10 µM (inactive)
same,GI50,OVCAR-5,> 10 µM (inactive)
same,GI50,SK-MEL-5,> 10 µM (inactive)
same,GI50,MDA-MB-231,> 10 µM (inactive)
same,GI50,M14,> 10 µM (inactive)
same,GI50,Hs-578T,> 10 µM (inactive)
same,GI50,A498,> 10 µM (inactive)
same,GI50,NCI-H23,> 10 µM (inactive)
same,GI50,LOX IMVI,> 10 µM (inactive)
same,GI50,SF-539,> 10 µM (inactive)
same,GI50,SNB-19,> 10 µM (inactive)
same,GI50,SF-268,> 10 µM (inactive)
same,GI50,HCT-15,> 10 µM
same,GI50,OVCAR-3,> 10 µM (inactive)
same,GI50,SW-620,> 10 µM (inactive)
same,GI50,IGROV-1,> 10 µM (inactive)
same,GI50,T47D,> 10 µM (inactive)
same,GI50,RXF 393,> 10 µM (inactive)
same,GI50,SK-MEL-2,> 10 µM (inactive)
same,GI50,SK-MEL-28,> 10 µM (inactive)
same,GI50,UACC-257,> 10 µM (inactive)
same,GI50,DU-145,> 10 µM (inactive)
same,GI50,HCT-116,> 10 µM (inactive)
same,GI50,A549,> 10 µM (inactive)
O=C(O)C1CC(c2ccc(F)cc2)=Nc2ccc(F)cc2S1 (configuration not stated),GI50,SNB-75,> 100 µM (inactive)
same,GI50,MDA-N,> 100 µM (inactive)
same,GI50,HOP-92,> 100 µM (inactive)
same,GI50,SN12C,> 100 µM (inactive)
same,GI50,OVCAR-8,> 100 µM (inactive)
same,GI50,PC-3,> 100 µM (inactive)
same,GI50,HT-29,> 100 µM (inactive)
same,GI50,NCI-H522,> 100 µM (inactive)
same,GI50,NCI-H226,> 100 µM (inactive)
same,GI50,SF-295,> 100 µM (inactive)
same,GI50,Malme-3M,> 100 µM (inactive)
same,GI50,UACC-62,> 100 µM (inactive)
same,GI50,HCC 2998,> 100 µM (inactive)
same,GI50,BT-549,> 100 µM (inactive)
same,GI50,CAKI-1,> 100 µM (inactive)
same,GI50,TK-10,> 100 µM (inactive)
same,GI50,RPMI-8226,> 100 µM (inactive)
same,GI50,COLO 205,> 100 µM (inactive)
same,GI50,CCRF-CEM,> 100 µM (inactive)
same,GI50,K562,> 100 µM (inactive)
same,GI50,HL-60,> 100 µM (inactive)
same,GI50,NCI/ADR-RES,> 100 µM (inactive)
same,GI50,SK-OV-3,> 100 µM (inactive)
same,GI50,SR,> 10 µM (inactive)
same,GI50,MCF7,> 100 µM (inactive)
same,GI50,OVCAR-4,> 100 µM (inactive)
same,GI50,MDA-MB-435,> 100 µM (inactive)
same,GI50,U-251,> 10 µM (inactive)
same,GI50,UO-31,> 100 µM (inactive)
same,GI50,786-0,> 100 µM (inactive)
same,GI50,NCI-H460,> 100 µM (inactive)
same,GI50,KM12,> 100 µM (inactive)
same,GI50,ACHN,> 100 µM (inactive)
same,GI50,MOLT-4,> 100 µM (inactive)
same,GI50,EKVX,> 100 µM (inactive)
same,GI50,OVCAR-5,> 100 µM (inactive)
same,GI50,SK-MEL-5,> 100 µM (inactive)
same,GI50,MDA-MB-231,> 100 µM (inactive)
same,GI50,M14,68.2 µM (inactive)
same,GI50,Hs-578T,> 100 µM (inactive)
same,GI50,A498,> 100 µM (inactive)
same,GI50,NCI-H23,> 100 µM (inactive)
same,GI50,SF-539,92.3 µM (inactive)
same,GI50,SNB-19,> 100 µM (inactive)
same,GI50,SF-268,> 100 µM (inactive)
same,GI50,HCT-15,> 100 µM
same,GI50,OVCAR-3,> 100 µM (inactive)
same,GI50,SW-620,> 100 µM (inactive)
same,GI50,IGROV-1,> 100 µM (inactive)
same,GI50,T47D,> 100 µM (inactive)
same,GI50,RXF 393,> 100 µM (inactive)
same,GI50,SK-MEL-2,> 100 µM (inactive)
same,GI50,SK-MEL-28,> 100 µM (inactive)
same,GI50,UACC-257,> 100 µM (inactive)
same,GI50,DU-145,> 100 µM (inactive)
same,GI50,HCT-116,> 100 µM (inactive)
same,GI50,A549,> 100 µM (inactive)
NCCOc1cccc(C2(N3CCCCC3)CCCCC2)c1,GI50,SNB-75,32.7 µM (inactive)
same,GI50,MDA-N,18.5 µM (inactive)
same,GI50,HOP-92,0.773 µM (active)
same,GI50,SN12C,> 100 µM (inactive)
same,GI50,OVCAR-8,33.4 µM (inactive)
same,GI50,PC-3,31.5 µM (inactive)
same,GI50,HT-29,15.5 µM (inactive)
same,GI50,NCI-H522,19.1 µM (inactive)
same,GI50,NCI-H226,> 100 µM (inactive)
same,GI50,SF-295,28.8 µM (inactive)
same,GI50,Malme-3M,20.1 µM (inactive)
same,GI50,HOP-62,92.5 µM (inactive)
same,GI50,UACC-62,20.2 µM (inactive)
same,GI50,HCC 2998,19.9 µM (inactive)
same,GI50,BT-549,19.1 µM (inactive)
same,GI50,CAKI-1,94 µM (inactive)
same,GI50,TK-10,33.7 µM (inactive)
same,GI50,RPMI-8226,20.9 µM (inactive)
same,GI50,COLO 205,12.3 µM (inactive)
same,GI50,CCRF-CEM,16.7 µM (inactive)
same,GI50,K562,16 µM (inactive)
same,GI50,HL-60,25 µM (inactive)
same,GI50,NCI/ADR-RES,> 100 µM (inactive)
same,GI50,SK-OV-3,> 100 µM (inactive)
same,GI50,SR,16.1 µM (inactive)
same,GI50,MCF7,38.8 µM (inactive)
same,GI50,OVCAR-4,35.9 µM (inactive)
same,GI50,MDA-MB-435,17.1 µM (inactive)
same,GI50,U-251,18.2 µM (inactive)
same,GI50,UO-31,13.7 µM (inactive)
same,GI50,786-0,13.3 µM (inactive)
same,GI50,NCI-H460,41.5 µM (inactive)
same,GI50,KM12,45.3 µM (inactive)
same,GI50,ACHN,> 100 µM (inactive)
same,GI50,MOLT-4,19.4 µM (inactive)
same,GI50,EKVX,21.5 µM (inactive)
same,GI50,OVCAR-5,41.4 µM (inactive)
same,GI50,SK-MEL-5,16.5 µM (inactive)
same,GI50,MDA-MB-231,21 µM (inactive)
same,GI50,M14,16.4 µM (inactive)
same,GI50,Hs-578T,16.9 µM (inactive)
same,GI50,A498,30 µM (inactive)
same,GI50,NCI-H23,> 100 µM (inactive)
same,GI50,LOX IMVI,14.7 µM (inactive)
same,GI50,SF-539,17.5 µM (inactive)
same,GI50,SNB-19,> 100 µM (inactive)
same,GI50,SF-268,25.6 µM (inactive)
same,GI50,HCT-15,38.9 µM
same,GI50,OVCAR-3,34.2 µM (inactive)
same,GI50,SW-620,31.5 µM (inactive)
same,GI50,T47D,52.6 µM (inactive)
same,GI50,RXF 393,22 µM (inactive)
same,GI50,SK-MEL-2,21.8 µM (inactive)
same,GI50,SK-MEL-28,18.7 µM (inactive)
same,GI50,UACC-257,19 µM (inactive)
same,GI50,DU-145,> 100 µM (inactive)
same,GI50,HCT-116,16.2 µM (inactive)
same,GI50,A549,37.2 µM (inactive)
